From patent publication US20240140957A1, “BRIDGED COMPOUNDS AS KRAS G12D INHIBITOR AND DEGRADER AND THE USE THEREOF” (BeiGene Switzerland GmbH, priority 2021, published 2024)

Tests used:
[1] = tested on: pERK1/2 (THR202/TYR204) in AsPC-1 cells; test: pERK Assay (HTRF) in AsPC-1 cells; assay type: cell-based; settings: Homo sapiens, ASPC1, 2 h compound treatment
Protocol: AsPC-1 cell line was used in this study. […] 30000 cells per well were seeded into a 96-well plate and incubated overnight. […] After 2 h compound treatment, cells were lysed, and the pERK1/2 (THR202/TYR204) level in the cell lysates was detected by HTRF kit (Cisbio). In brief, a total of 16 μL of cell lysate from each well of a 96-well plate was transferred to a 384-well white assay plate. Lysate from each well was incubated with 2 μL of Eu3+-cryptate (donor) labeled anti-phospho-ERK1/2 and 2 μL of D2 (acceptor) labeled anti-phospho-ERK1/2 antibodies (Cisbio) overnight in dark at room temperature. When donor and acceptor are in close proximity, excitation of the donor with laser triggers a Fluorescence Resonance Energy Transfer (FRET) towards the acceptor, which in turn fluoresces at 655 nm wavelength. FRET signals were measured using a PHERAstar FSX reader (BMG Labtech).

GDP-loaded KRAS G12D = GDP-loaded KRAS G12D (Homo sapiens, UniProt P01116, G12D); test: KRAS G12D Probe Displacement Assay; assay type: binding; settings: KRAS G12D 0.5 nM, biotinylated probe 2 4 nM; read-out: KRAS G12D Probe Displacement Assay IC50
GDP-loaded WT KRAS = GDP-loaded WT KRAS (Homo sapiens, UniProt P01116); test: KRAS WT Probe Displacement Assay; assay type: binding; settings: WT KRAS 3 nM, biotinylated probe 1 60 nM; read-out: KRAS WT Probe Displacement Assay IC50
KRAS G12D:SOS1 = KRAS G12D:SOS1 (Homo sapiens, UniProt P01116, G12D); test: KRAS G12D:SOS1 GDP TR-FRET assay; assay type: binding; settings: GST-KRAS G12D 37.5 nM, GDP 10 μM, His-SOS1 18 nM
Protocol: (§1) KRAS:SOS1 GDP TR-FRET Assay
(§2) This assay was used to identify compounds which competitively interact with the binding of KRAS protein to SOS1 in the presence of GDP. […] All protein and reaction solutions were prepared in assay buffer containing DPBS pH7.5, 0.1% BSA, and 0.05% Tween 20. Purified GST-tagged WT KRAS or KRAS G12D protein (37.5 nM final assay concentration) and GDP (Sigma, 10 μM final assay concentration) mixture, a serially diluted compound (top final concentration is 50 μM or 10 uM, 3-fold serially diluted, 10 points) and His-tagged SOS1 protein (18 nM final assay concentration) were added into the assay plates (384 well microplate, black, Corning) sequentially. Plates are incubated at 24° C. for 1 hr. Following the incubation, Mab Anti-GST-Tb cryptate (Cisbio) and […] (Cisbio) were added and further incubated at 24° C. for another 1 hr. The TR-FRET signals (ex337 nm, em665 nm/620 nm) were read on BMG PHERAstar FSX instrument. The inhibition percentage of KRAS protein binding with SOS1 in presence of increasing concentrations of compounds was calculated based on the ratio of fluorescence at 665 nm to that at 620 nm. The IC50 value of each compound was calculated from fitting the data to the four-parameter logistic model by Dotmatics.

WT KRAS:SOS1 = WT KRAS:SOS1 (Homo sapiens, UniProt P01116); test: KRAS WT:SOS1 GDP TR-FRET assay; assay type: binding; settings: GST-WT KRAS 37.5 nM, GDP 10 μM, His-SOS1 18 nM
Protocol: as §1, §2

Chain of GDP-loaded WT KRAS (P01116 1-188 isoform P01116-2): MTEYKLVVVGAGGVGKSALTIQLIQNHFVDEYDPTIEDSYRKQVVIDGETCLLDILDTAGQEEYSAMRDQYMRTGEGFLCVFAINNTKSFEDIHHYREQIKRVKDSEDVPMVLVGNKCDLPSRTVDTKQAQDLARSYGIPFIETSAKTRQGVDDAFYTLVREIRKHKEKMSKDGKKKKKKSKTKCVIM
Chain of WT KRAS:SOS1 (P01116 1-188 isoform P01116-2): as above
Chain of KRAS G12D:SOS1 (P01116 1-188 isoform P01116-2 G12D): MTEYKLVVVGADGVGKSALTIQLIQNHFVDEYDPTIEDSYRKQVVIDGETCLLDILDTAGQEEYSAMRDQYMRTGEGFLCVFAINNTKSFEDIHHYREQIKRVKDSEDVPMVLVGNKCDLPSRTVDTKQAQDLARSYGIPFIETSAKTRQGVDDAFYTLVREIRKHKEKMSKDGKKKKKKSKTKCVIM
Chain of GDP-loaded KRAS G12D (P01116 1-188 isoform P01116-2 G12D): as above

SMILES: Cc1cc(N)nc(-c2c(Cl)cc3c(N4C5CNCC4COC5)nc(OC[C@@]45CCCN4C[C@H](F)C5)nc3c2F)c1C(F)(F)F (stereo in doubt) [Example E88, 6-(4-(3-oxa-7,9-diazabicyclo[3.3.1]nonan-9-yl)-6-chloro-8-fluoro-2-((2-fluorotetrahydro-1H-pyrrolizin-7a(5H)-yl)methoxy)quinazolin-7-yl)-4-methyl-5-(trifluoromethyl)pyridin-2-amine]
- IC50 [1]: 172 nM
- IC50 (GDP-loaded KRAS G12D): 1.7 nM
- IC50 (GDP-loaded WT KRAS): 49 nM

SMILES: CC(CN1CCCCC1)Oc1nc(N2CC3COCC(C2)N3)c2cc(Cl)c(-c3ccc(F)c4sc(N)nc34)c(F)c2n1 (stereo not drawn) [Example E21, 4-(4-(3-oxa-7,9-diazabicyclo[3.3.1]nonan-7-yl)-6-chloro-8-fluoro-2-((1-(piperidin-1-yl)propan-2-yl)oxy)quinazolin-7-yl)-7-fluorobenzo[d]thiazol-2-amine]
- IC50 (KRAS G12D:SOS1): 44 nM
- IC50 [1]: > 10000 nM
- IC50 (WT KRAS:SOS1): 338 nM

SMILES: C[C@@H](CN1CCS(=O)(=O)CC1)Oc1nc(N2CC3CCC(C2)N3)c2cc(Cl)c(-c3ccc(F)c4sc(N)nc34)c(F)c2n1 [Example E22, 4-((2S)-2-((7-(2-amino-7-fluorobenzo[d]thiazol-4-yl)-4-(3,8-diazabicyclo[3.2.1]octan-3-yl)-6-chloro-8-fluoroquinazolin-2-yl)oxy)propyl)thiomorpholine 1,1-dioxide]
- IC50 (KRAS G12D:SOS1): 27 nM
- IC50 [1]: 7700 nM
- IC50 (WT KRAS:SOS1): > 3330 nM

SMILES: C[C@@H](CN1CCC1)Oc1nc(N2CC3CCC(C2)N3)c2cc(Cl)c(-c3ccc(F)c4sc(N)nc34)c(F)c2n1 [Example E23, 4-(2-(((S)-1-(azetidin-1-yl)propan-2-yl)oxy)-4-(3,8-diazabicyclo[3.2.1]octan-3-yl)-6-chloro-8-fluoroquinazolin-7-yl)-7-fluorobenzo[d]thiazol-2-amine]
- IC50 (KRAS G12D:SOS1): 3.9 nM
- IC50 [1]: 5220 nM
- IC50 (WT KRAS:SOS1): 146 nM

SMILES: C[C@@H](CN1CCC(F)C1)Oc1nc(N2CC3CCC(C2)N3)c2cc(Cl)c(-c3ccc(F)c4sc(N)nc34)c(F)c2n1 (stereo partly drawn) [Example E24, 4-(4-(3,8-diazabicyclo[3.2.1]octan-3-yl)-6-chloro-8-fluoro-2-(((2S)-1-(3-fluoropyrrolidin-1-yl)propan-2-yl)oxy)quinazolin-7-yl)-7-fluorobenzo[d]thiazol-2-amine]
- IC50 (KRAS G12D:SOS1): 2.8 nM
- IC50 [1]: 1270 nM
- IC50 (WT KRAS:SOS1): 210 nM

SMILES: C[C@@H](CN1CCC(F)CC1)Oc1nc(N2CC3CCC(C2)N3)c2cc(Cl)c(-c3ccc(F)c4sc(N)nc34)c(F)c2n1 [Example E25]
- IC50 (KRAS G12D:SOS1): 2.2 nM
- IC50 [1]: 860 nM
- IC50 (WT KRAS:SOS1): 88 nM

SMILES: C[C@@H](CN1CCC(C#N)CC1)Oc1nc(N2CC3CCC(C2)N3)c2cc(Cl)c(-c3ccc(F)c4sc(N)nc34)c(F)c2n1 [Example E26, 1-((2S)-2-((7-(2-amino-7-fluorobenzo[d]thiazol-4-yl)-4-(3,8-diazabicyclo[3.2.1]octan-3-yl)-6-chloro-8-fluoroquinazolin-2-yl)oxy)propyl)piperidine-4-carbonitrile]
- IC50 (KRAS G12D:SOS1): 2.9 nM
- IC50 [1]: 819 nM
- IC50 (WT KRAS:SOS1): 140 nM

SMILES: CC1CCCCN1C[C@H](C)Oc1nc(N2CC3CCC(C2)N3)c2cc(Cl)c(-c3ccc(F)c4sc(N)nc34)c(F)c2n1 (stereo partly drawn) [Example E27, 4-(4-(3,8-diazabicyclo[3.2.1]octan-3-yl)-6-chloro-8-fluoro-2-(((2S)-1-(2-methylpiperidin-1-yl)propan-2-yl)oxy)quinazolin-7-yl)-7-fluorobenzo[d]thiazol-2-amine]
- IC50 (KRAS G12D:SOS1): 2.9 nM
- IC50 [1]: 518 nM
- IC50 (WT KRAS:SOS1): 57 nM

SMILES: CN1C[C@H](O)C[C@H]1COc1nc(N2CC3CCC(C2)N3)c2cc(Cl)c(-c3ccc(F)c4sc(N)nc34)c(F)c2n1 [Example E28, (3R,5S)-5-(((7-(2-amino-7-fluorobenzo[d]thiazol-4-yl)-4-(3,8-diazabicyclo[3.2.1]octan-3-yl)-6-chloro-8-fluoroquinazolin-2-yl)oxy)methyl)-1-methylpyrrolidin-3-ol]
- IC50 (KRAS G12D:SOS1): 3 nM
- IC50 [1]: 8860 nM
- IC50 (WT KRAS:SOS1): 30 nM

SMILES: C[C@@H](CN1CCOCC1)Oc1nc(N2CC3CCC(C2)N3)c2cc(Cl)c(-c3ccc(F)c4sc(N)nc34)c(F)c2n1 [Example E29, 4-(4-(3,8-diazabicyclo[3.2.1]octan-3-yl)-6-chloro-8-fluoro-2-(((S)-1-morpholinopropan-2-yl)oxy)quinazolin-7-yl)-7-fluorobenzo[d]thiazol-2-amine]
- IC50 (KRAS G12D:SOS1): 5.9 nM
- IC50 [1]: 903 nM
- IC50 (WT KRAS:SOS1): 453 nM

SMILES: C[C@@H](CN1CCC(F)CC1)Oc1nc(N2C3CCC2CNC3)c2cc(Cl)c(-c3ccc(F)c4sc(N)nc34)c(F)c2n1 [Example E30, 4-(4-(3,8-diazabicyclo[3.2.1]octan-8-yl)-6-chloro-8-fluoro-2-(((S)-1-(4-fluoropiperidin-1-yl)propan-2-yl)oxy)quinazolin-7-yl)-7-fluorobenzo[d]thiazol-2-amine]
- IC50 (KRAS G12D:SOS1): 12 nM
- IC50 [1]: 1810 nM
- IC50 (WT KRAS:SOS1): 173 nM

SMILES: C[C@@H](CN1CC(F)C1)Oc1nc(N2CC3CCC(C2)N3)c2cc(Cl)c(-c3ccc(F)c4sc(N)nc34)c(F)c2n1 [Example E31, 4-(4-(3,8-diazabicyclo[3.2.1]octan-3-yl)-6-chloro-8-fluoro-2-(((S)-1-(3-fluoroazetidin-1-yl)propan-2-yl)oxy)quinazolin-7-yl)-7-fluorobenzo[d]thiazol-2-amine]
- IC50 (KRAS G12D:SOS1): 11 nM
- IC50 [1]: 1900 nM
- IC50 (WT KRAS:SOS1): 1080 nM

SMILES: C[C@@H](CN1CC=CCC1)Oc1nc(N2CC3CCC(C2)N3)c2cc(Cl)c(-c3ccc(F)c4sc(N)nc34)c(F)c2n1 [Example E33, 4-(4-(3,8-diazabicyclo[3.2.1]octan-3-yl)-6-chloro-2-(((S)-1-(3,6-dihydropyridin-1(2H)-yl)propan-2-yl)oxy)-8-fluoroquinazolin-7-yl)-7-fluorobenzo[d]thiazol-2-amine]
- IC50 (KRAS G12D:SOS1): 6.1 nM
- IC50 [1]: 890 nM
- IC50 (WT KRAS:SOS1): 143 nM

SMILES: C[C@@H](CN1CCN(C)CC1)Oc1nc(N2CC3CCC(C2)N3)c2cc(Cl)c(-c3ccc(F)c4sc(N)nc34)c(F)c2n1 [Example E34, 4-(4-(3,8-diazabicyclo[3.2.1]octan-3-yl)-6-chloro-8-fluoro-2-(((S)-1-(4-methylpiperazin-1-yl)propan-2-yl)oxy)quinazolin-7-yl)-7-fluorobenzo[d]thiazol-2-amine]
- IC50 (KRAS G12D:SOS1): 15 nM
- IC50 [1]: > 10000 nM
- IC50 (WT KRAS:SOS1): 1350 nM

SMILES: Nc1nc2c(-c3c(Cl)cc4c(N5C6CCC5CNC6)nc(OC5CC6CCCCN6C5)nc4c3F)ccc(F)c2s1 (stereo not drawn) [Example E39, 4-(4-(3,8-diazabicyclo[3.2.1]octan-8-yl)-6-chloro-8-fluoro-2-((octahydroindolizin-2-yl)oxy)quinazolin-7-yl)-7-fluorobenzo[d]thiazol-2-amine]
- IC50 (KRAS G12D:SOS1): 54 nM
- IC50 [1]: > 10000 nM
- IC50 (WT KRAS:SOS1): 8160 nM

SMILES: Nc1nc2c(-c3c(C(F)(F)F)cc4c(N5CC6CCC(C5)N6)nc(OC[C@@]56CCCN5C[C@H](F)C6)nc4c3F)ccc(F)c2s1 [Example E52, 4-(4-(3,8-diazabicyclo[3.2.1]octan-3-yl)-8-fluoro-2-(((2R,7aS)-2-fluorotetrahydro-1H-pyrrolizin-7a(5H)-yl)methoxy)-6-(trifluoromethyl)quinazolin-7-yl)-7-fluorobenzoI[d]thiazol-2-amine]
- IC50 [1]: 48 nM
- IC50 (GDP-loaded KRAS G12D): 0.36 nM
- IC50 (GDP-loaded WT KRAS): 3 nM

SMILES: Nc1nc2c(-c3c(Cl)cc4c(N5CC6CCC(C5)N6)nc(OCC56CCCN5CC(F)C6)nc4c3F)ccc(F)c2s1 (stereo not drawn) [Example E54, 4-(4-(3,8-diazabicyclo[3.2.1]octan-3-yl)-6-chloro-8-fluoro-2-((2-fluorotetrahydro-1H-pyrrolizin-7a(5H)-yl)methoxy)quinazolin-7-yl)-7-fluorobenzo[d]thiazol-2-amine]
- IC50 [1]: 205 nM
- IC50 (GDP-loaded KRAS G12D): 0.35 nM
- IC50 (GDP-loaded WT KRAS): 7.5 nM
